Blank lines part the entries; values can stand above or below the compound they belong to.
Columns and labels:
[1] = system: Plasmodium falciparum; assay: microbe, parasite or virus in culture; settings: Dd2
Description: Antiplasmodial activity against Plasmodium falciparum Dd2 assessed as inhibition of parasitic growth

[2] = system: Plasmodium falciparum; assay: Antimalarial activity against Plasmodium falciparum NF54 assessed as reduction in cell growth; format: functional, organism-based
[3] = system: MDA-MB-231; assay: Antiproliferative activity against human MDA-MB-231 cells assessed as reduction in cell viability measured after 48 hrs by MTT assay; format: functional, cell-based; settings: MDA-MB-231, 48 h
[4] = system: BT-474; assay: Antiproliferative activity against human BT-474 cells assessed as reduction in cell growth measured after 72 hrs by MTT assay; format: functional, cell-based; settings: BT-474, 72 h
[5] = system: SK-MEL-2; assay: Antiproliferative activity against human SK-MEL-2 cells assessed as reduction in cell viability incubated for 48 hrs by MTT assay; format: functional, cell-based; settings: SK-MEL-2, 48 h
[6] = system: TRAMP-C2H; assay: Cytotoxicity against mouse TRAMP-C2H cells assessed as inhibition of cell growth measured after 72 hs by MTT assay; format: functional, cell-based
[7] = system: TRAMP-C1A; assay: Cytotoxicity against mouse TRAMP-C1A cells assessed as inhibition of cell growth measured after 72 hrs by MTT assay; format: functional, cell-based
[8] = system: C2G cell line; assay: Cytotoxicity against mouse C2G cells assessed as inhibition of cell growth measured after 72 hrs by MTT assay; format: functional, cell-based
[9] = system: C2D cell line; assay: Cytotoxicity against mouse C2D cell line assessed as inhibition of cell growth measured after 72 hrs by MTT assay; format: functional, cell-based
[10] = Antiproliferative activity against human 1205Lu cells assessed as reduction in cell growth; format: functional, cell-based
[11] = system: HCT-116; assay: Antiproliferative activity against human HCT-116 cells assessed as growth after 48 hrs by MTT assay; format: functional, cell-based; settings: HCT-116, 48 h
[12] = Cytotoxicity against human HFF cells assessed as cell growth inhibition measured after 48 hrs by MTT assay; format: toxicity, cell-based
[13] = system: HeLa; assay: Antiproliferative activity against human Hela cells assessed as cell growth inhibition measured after 48 hrs by MTT assay; format: functional, cell-based
[14] = system: XF498; assay: Antiproliferative activity against human XF498 cells assessed as reduction in cell viability incubated for 48 hrs by MTT assay; format: functional, cell-based; settings: XF498, 48 h
[15] = system: SK-MEL; assay: Antiproliferative activity against human SK-MEL cells assessed as reduction in cell viability incubated for 48 hrs by MTT assay; format: functional, cell-based
[16] = system: Plasmodium falciparum; assay: Antimalarial activity against Plasmodium falciparum K1 assessed as inhibition of malarial growth; format: functional, organism-based
[17] = system: Jurkat; assay: Antiproliferative activity against human Jurkat cells assessed as reduction in cell viability incubated for 48 hrs by MTT assay; format: functional, cell-based
[18] = system: Plasmodium falciparum; assay: Antimalarial activity against Plasmodium falciparum HB3 assessed as inhibition of malarial growth; format: functional, organism-based
[19] = system: HL-60; assay: Growth inhibition of human HL-60 cells assessed as cell growth inhibition measured after 48 hrs by MTT assay; format: functional
[20] = system: Plasmodium falciparum; assay: Antimalarial activity against Plasmodium falciparum NF54 assessed as inhibition of cell growth incubated for 72 hrs by SYBR Green I staining based fluorescence analysis; format: functional, organism-based; settings: NF54, 72 h

IC50 [1]: 2730 nM
SMILES: C[C@@H]1CC[C@H]2[C@@H](C)C(O)O[C@H]3O[C@]4(C)CC[C@@H]1[C@]32O4 (stereo partly specified)

SMILES: C[C@@H]1CC[C@H]2[C@@H](C)C(CC(COC(=O)CCC(=O)O)CC3O[C@H]4O[C@@]5(C)CC[C@H]6[C@H](C)CC[C@@H]([C@H]3C)[C@@]46OO5)O[C@H]3O[C@@]4(C)CC[C@@H]1[C@]32OO4 (stereo partly specified)
IC50 [2]: 2 nM | IC50 [3]: 32000 nM | IC50 [4]: 390 nM

SMILES: C[C@@H]1CC[C@H]2[C@@H](C)C(OCC(=O)COC3O[C@@H]4O[C@]5(C)CC[C@@H]6[C@@H](C)CC[C@H]([C@@H]3C)[C@]46OO5)O[C@H]3O[C@@]4(C)CC[C@@H]1[C@]32OO4 (stereo partly specified)
IC50 [5]: 560 nM

SMILES: Nc1ccn([C@@H]2O[C@H](CO)[C@@H](O)C2(F)F)c(=O)n1 [GEMCITABINE]
IC50 [6]: 3.7 nM | IC50 [7]: 3.7 nM | IC50 [8]: 3.7 nM | IC50 [9]: 3.7 nM

SMILES: C[C@@H]1CC[C@H]2[C@@H](C)C(CC(CC3O[C@@H]4O[C@]5(C)CC[C@@H]6[C@@H](C)CC[C@H]([C@@H]3C)[C@]46OO5)CN3CCN(c4ccccn4)CC3)O[C@H]3O[C@@]4(C)CC[C@@H]1[C@]32OO4 (stereo partly specified)
IC50 [3]: 5000 nM | IC50 [4]: 22 nM

SMILES: C[C@@H]1CC[C@H]2[C@@H](C)C(CC(COP(=O)(Oc3ccccc3)Oc3ccccc3)CC3O[C@@H]4O[C@]5(C)CC[C@@H]6[C@@H](C)CC[C@H]([C@@H]3C)[C@]46OO5)O[C@H]3O[C@@]4(C)CC[C@@H]1[C@]32OO4 (stereo partly specified)
IC50 [10]: 60 nM | IC50 [11]: 40 nM | IC50 at 48 h [12]: 55800 nM | IC50 [13]: 190 nM

SMILES: C[C@@H]1CC[C@H]2[C@@H](C)C(CC(CC3O[C@@H]4O[C@]5(C)CC[C@@H]6[C@@H](C)CC[C@H]([C@@H]3C)[C@]46OO5)C(=O)NN)O[C@H]3O[C@@]4(C)CC[C@@H]1[C@]32OO4 (stereo partly specified)
IC50 [4]: 13 nM

IC50 [11]: 7100 nM | IC50 [13]: 7100 nM
SMILES: C[C@H]1[C@H](OC(=O)CCC(=O)O)O[C@@H]2O[C@@]3(C)CC[C@H]4[C@H](C)CC[C@@H]1[C@@]24OO3 [ARTESUNATE]
IC50 [10]: 7100 nM | CC50 at 48 h ([12]; time 48 hrs, read-out: TC50): 717000 nM

SMILES: C[C@@H]1CC[C@H]2[C@@H](C)C(CCC(=O)NCCCN3CCN(CCCNC(=O)CCC4O[C@H]5O[C@]6(C)CC[C@H]7[C@H](C)CC[C@@H]([C@H]4C)[C@@]57OO6)CC3)O[C@H]3O[C@]4(C)CC[C@@H]1[C@]32OO4 (stereo partly specified)
IC50 [14]: 460 nM | IC50 [15]: 450 nM

SMILES: C[C@@H]1CC[C@H]2[C@@H](C)C(CC(CC3O[C@@H]4O[C@]5(C)CC[C@@H]6[C@@H](C)CC[C@H]([C@@H]3C)[C@]46OO5)CN3CCN(c4cccnc4)CC3)O[C@H]3O[C@@]4(C)CC[C@@H]1[C@]32OO4 (stereo partly specified)
IC50 [3]: 10000 nM | IC50 [4]: 70 nM

SMILES: C[C@@H]1CC[C@H]2[C@@H](C)C(CCCOP(=O)(OCCC3O[C@H]4O[C@@]5(C)CC[C@H]6[C@H](C)CC[C@@H]([C@H]3C)[C@@]46OO5)Oc3ccccc3)O[C@H]3O[C@@]4(C)CC[C@@H]1[C@]32OO4 (stereo partly specified)
IC50 [16]: 0.5 nM | IC50 [17]: 13200 nM | IC50 [18]: 0.18 nM | GI50 [19]: 241 nM

SMILES: CC(=O)N1CCN(CC(CC2O[C@@H]3O[C@]4(C)CC[C@@H]5[C@@H](C)CC[C@H]([C@@H]2C)[C@]35OO4)CC2O[C@H]3O[C@@]4(C)CC[C@H]5[C@H](C)CC[C@@H]([C@H]2C)[C@@]35OO4)CC1 (stereo partly specified)
IC50 [3]: 8000 nM | IC50 [4]: 60 nM

SMILES: C[C@H]1[C@H](CC(F)(F)c2ccc(C(F)(F)C[C@H]3O[C@H]4O[C@@]5(C)CC[C@H]6[C@H](C)CC[C@@H]([C@H]3C)[C@@]46OO5)cc2)O[C@H]2O[C@@]3(C)CC[C@H]4[C@H](C)CC[C@@H]1[C@@]24OO3
IC50 [20]: 15 nM
